Measured values reported in publication PMC6757289, “Design and Characterization of SGK3-PROTAC1, an Isoform Specific SGK3 Kinase PROTAC Degrader” (ACS Chemical Biology, 2019).
Like-named read-outs stand apart in the source and are kept apart here.

Key:
Experiment in all cases: kinase profiling panel
Format in all cases: biochemical
Conditions in all cases: read-out: % Activity Remaining
[1] = target: CAMK1 (Homo sapiens, UniProt Q14012)
Source text: (§1) Protein kinase profiling against a Dundee panel of 140 protein kinases was undertaken at the International Centre for Protein Kinase Profiling. The result for each kinase was presented as a mean kinase activity of the reaction taken in triplicate relative to a control sample treated with DMSO. Assay conditions and abbreviations are available at http://www.kinase-screen.mrc.ac.uk.

[2] = target: T1, EPH-B3 (Homo sapiens, UniProt P54753)
T1 sequence (P54753 34-998): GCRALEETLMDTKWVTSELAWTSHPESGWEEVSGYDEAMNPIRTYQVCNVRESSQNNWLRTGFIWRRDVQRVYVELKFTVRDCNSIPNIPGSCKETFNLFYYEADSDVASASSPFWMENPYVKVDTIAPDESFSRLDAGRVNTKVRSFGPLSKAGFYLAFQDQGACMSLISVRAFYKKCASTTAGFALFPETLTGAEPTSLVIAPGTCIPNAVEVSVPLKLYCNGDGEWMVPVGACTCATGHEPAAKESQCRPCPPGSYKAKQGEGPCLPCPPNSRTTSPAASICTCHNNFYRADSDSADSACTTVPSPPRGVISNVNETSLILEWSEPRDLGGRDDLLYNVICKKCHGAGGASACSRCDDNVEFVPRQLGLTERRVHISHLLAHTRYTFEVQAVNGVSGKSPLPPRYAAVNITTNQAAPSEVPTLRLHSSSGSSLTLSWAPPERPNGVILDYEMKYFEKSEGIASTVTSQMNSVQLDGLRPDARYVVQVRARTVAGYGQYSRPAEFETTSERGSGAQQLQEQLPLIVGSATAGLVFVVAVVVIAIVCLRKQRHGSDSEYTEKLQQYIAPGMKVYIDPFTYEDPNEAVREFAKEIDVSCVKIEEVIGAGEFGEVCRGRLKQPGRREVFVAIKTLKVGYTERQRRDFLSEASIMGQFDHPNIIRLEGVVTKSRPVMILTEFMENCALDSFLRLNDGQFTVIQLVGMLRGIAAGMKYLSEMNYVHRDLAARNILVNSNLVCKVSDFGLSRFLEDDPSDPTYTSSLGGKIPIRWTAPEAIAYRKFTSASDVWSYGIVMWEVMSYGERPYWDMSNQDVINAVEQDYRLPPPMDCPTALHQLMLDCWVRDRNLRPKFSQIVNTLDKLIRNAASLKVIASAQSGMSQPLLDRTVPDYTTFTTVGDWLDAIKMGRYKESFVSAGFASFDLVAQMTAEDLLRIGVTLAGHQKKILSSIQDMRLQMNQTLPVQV
Source text: as §1

[3] = target: MAPKAP-K3 (Homo sapiens, UniProt Q16644)
Source text: as §1

[4] = target: MKK1 (Homo sapiens, UniProt Q02750)
Chain of MKK1 (Q02750 whole entry): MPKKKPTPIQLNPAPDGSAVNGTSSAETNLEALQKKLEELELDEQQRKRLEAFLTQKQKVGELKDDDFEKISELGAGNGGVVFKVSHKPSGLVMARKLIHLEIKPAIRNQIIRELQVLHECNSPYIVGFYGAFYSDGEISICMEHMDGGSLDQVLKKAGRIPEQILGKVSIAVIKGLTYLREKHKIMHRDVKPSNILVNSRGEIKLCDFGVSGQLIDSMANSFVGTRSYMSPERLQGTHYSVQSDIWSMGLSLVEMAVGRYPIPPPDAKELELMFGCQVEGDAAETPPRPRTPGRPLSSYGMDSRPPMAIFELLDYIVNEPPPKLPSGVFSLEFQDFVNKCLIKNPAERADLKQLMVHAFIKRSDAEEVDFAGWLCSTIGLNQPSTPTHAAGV
Source text: as §1

[5] = target: MKK2 (Homo sapiens, UniProt P36507)
Chain of MKK2 (P36507 whole entry): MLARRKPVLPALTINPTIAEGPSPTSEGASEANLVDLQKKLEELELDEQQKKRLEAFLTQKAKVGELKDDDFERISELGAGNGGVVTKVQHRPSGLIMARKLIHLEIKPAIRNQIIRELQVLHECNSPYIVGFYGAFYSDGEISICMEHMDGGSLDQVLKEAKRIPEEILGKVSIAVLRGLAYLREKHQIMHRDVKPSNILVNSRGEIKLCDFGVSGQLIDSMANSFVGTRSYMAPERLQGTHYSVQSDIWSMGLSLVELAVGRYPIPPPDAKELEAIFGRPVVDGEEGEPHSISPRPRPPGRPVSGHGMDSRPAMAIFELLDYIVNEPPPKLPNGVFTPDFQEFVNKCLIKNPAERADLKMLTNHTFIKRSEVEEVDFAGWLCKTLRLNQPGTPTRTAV
Source text: as §1

[6] = target: MLK3 (Homo sapiens, UniProt Q16584)
Chain of MLK3 (Q16584 whole entry): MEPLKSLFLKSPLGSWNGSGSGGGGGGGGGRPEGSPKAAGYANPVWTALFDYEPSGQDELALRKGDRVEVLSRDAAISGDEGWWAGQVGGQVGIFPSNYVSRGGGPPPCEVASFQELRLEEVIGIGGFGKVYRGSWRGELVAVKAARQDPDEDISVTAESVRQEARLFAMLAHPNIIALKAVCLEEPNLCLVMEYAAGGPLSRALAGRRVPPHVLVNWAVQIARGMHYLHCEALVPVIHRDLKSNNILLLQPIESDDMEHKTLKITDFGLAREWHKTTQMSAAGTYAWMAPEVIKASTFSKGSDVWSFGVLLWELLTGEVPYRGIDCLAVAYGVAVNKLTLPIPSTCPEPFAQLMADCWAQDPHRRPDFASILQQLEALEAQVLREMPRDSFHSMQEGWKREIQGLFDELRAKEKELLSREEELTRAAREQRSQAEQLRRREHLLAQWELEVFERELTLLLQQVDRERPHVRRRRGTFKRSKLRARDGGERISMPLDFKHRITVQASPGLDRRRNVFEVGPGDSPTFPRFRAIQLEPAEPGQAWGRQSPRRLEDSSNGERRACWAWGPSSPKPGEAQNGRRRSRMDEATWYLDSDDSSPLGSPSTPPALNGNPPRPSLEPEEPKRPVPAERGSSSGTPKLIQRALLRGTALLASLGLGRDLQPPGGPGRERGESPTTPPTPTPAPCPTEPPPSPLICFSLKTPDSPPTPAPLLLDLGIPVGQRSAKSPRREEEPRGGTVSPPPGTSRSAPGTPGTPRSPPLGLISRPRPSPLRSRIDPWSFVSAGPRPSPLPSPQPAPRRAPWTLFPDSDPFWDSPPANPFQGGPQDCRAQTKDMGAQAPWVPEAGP
Source text: as §1

[7] = target: RSK1 (Homo sapiens, UniProt Q15418)
Chain of RSK1 (Q15418 whole entry): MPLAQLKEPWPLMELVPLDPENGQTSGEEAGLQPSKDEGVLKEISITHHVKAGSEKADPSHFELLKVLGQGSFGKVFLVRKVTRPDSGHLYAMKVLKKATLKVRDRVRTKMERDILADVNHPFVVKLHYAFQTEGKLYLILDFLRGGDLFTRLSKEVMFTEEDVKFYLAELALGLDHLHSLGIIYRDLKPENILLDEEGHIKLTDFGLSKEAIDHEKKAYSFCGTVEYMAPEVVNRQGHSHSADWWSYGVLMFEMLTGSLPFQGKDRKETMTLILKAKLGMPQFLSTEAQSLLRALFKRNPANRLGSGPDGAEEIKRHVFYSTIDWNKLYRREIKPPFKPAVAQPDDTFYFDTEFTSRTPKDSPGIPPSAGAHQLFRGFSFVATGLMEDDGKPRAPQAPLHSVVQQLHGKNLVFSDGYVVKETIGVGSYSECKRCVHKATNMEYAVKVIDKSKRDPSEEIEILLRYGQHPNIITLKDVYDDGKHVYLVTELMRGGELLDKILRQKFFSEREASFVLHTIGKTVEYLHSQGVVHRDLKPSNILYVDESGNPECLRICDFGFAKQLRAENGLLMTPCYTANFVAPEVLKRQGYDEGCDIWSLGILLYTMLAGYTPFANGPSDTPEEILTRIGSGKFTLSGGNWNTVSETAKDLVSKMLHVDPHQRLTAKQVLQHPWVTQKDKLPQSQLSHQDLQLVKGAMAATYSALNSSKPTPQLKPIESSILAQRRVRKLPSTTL
Source text: as §1

[8] = target: SRPK1 (Homo sapiens, UniProt Q96SB4)
Chain of SRPK1 (Q96SB4 whole entry): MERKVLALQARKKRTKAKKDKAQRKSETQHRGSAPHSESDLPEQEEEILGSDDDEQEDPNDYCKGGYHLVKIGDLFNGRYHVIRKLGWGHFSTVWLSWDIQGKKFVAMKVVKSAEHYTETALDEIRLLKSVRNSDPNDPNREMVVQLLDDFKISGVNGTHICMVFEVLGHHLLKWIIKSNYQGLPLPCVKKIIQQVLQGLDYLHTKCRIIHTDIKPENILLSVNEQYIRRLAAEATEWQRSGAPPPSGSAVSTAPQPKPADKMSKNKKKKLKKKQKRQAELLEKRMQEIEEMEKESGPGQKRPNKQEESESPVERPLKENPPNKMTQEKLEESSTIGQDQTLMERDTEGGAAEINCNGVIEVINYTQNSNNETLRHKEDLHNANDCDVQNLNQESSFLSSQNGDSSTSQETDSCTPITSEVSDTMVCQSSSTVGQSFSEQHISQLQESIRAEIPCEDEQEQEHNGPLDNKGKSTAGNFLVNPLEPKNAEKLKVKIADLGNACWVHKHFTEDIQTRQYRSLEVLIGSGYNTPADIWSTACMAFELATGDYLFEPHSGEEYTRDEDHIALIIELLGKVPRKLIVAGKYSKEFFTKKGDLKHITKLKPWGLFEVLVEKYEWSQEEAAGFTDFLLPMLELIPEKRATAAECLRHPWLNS
Source text: as §1

[9] = target: SYK (Homo sapiens, UniProt P43405)
Source text: as §1

[10] = target: T2, TGFBR1 (Homo sapiens, UniProt P36897)
T2 sequence (P36897 34-503): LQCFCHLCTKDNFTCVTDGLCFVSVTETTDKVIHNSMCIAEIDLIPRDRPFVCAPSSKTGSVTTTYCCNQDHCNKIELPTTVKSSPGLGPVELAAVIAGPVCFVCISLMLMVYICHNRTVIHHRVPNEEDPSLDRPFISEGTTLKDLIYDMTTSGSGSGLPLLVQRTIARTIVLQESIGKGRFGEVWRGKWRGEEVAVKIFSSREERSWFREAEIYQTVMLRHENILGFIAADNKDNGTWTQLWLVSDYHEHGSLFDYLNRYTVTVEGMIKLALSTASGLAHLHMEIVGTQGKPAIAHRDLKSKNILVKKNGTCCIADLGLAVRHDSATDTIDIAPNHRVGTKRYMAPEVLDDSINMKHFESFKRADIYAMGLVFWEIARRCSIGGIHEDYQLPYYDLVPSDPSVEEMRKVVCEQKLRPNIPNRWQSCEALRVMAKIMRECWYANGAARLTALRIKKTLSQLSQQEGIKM
Source text: as §1

[11] = target: TIE2 (Homo sapiens, UniProt Q02763)
Chain of TIE2 (Q02763 23-1124): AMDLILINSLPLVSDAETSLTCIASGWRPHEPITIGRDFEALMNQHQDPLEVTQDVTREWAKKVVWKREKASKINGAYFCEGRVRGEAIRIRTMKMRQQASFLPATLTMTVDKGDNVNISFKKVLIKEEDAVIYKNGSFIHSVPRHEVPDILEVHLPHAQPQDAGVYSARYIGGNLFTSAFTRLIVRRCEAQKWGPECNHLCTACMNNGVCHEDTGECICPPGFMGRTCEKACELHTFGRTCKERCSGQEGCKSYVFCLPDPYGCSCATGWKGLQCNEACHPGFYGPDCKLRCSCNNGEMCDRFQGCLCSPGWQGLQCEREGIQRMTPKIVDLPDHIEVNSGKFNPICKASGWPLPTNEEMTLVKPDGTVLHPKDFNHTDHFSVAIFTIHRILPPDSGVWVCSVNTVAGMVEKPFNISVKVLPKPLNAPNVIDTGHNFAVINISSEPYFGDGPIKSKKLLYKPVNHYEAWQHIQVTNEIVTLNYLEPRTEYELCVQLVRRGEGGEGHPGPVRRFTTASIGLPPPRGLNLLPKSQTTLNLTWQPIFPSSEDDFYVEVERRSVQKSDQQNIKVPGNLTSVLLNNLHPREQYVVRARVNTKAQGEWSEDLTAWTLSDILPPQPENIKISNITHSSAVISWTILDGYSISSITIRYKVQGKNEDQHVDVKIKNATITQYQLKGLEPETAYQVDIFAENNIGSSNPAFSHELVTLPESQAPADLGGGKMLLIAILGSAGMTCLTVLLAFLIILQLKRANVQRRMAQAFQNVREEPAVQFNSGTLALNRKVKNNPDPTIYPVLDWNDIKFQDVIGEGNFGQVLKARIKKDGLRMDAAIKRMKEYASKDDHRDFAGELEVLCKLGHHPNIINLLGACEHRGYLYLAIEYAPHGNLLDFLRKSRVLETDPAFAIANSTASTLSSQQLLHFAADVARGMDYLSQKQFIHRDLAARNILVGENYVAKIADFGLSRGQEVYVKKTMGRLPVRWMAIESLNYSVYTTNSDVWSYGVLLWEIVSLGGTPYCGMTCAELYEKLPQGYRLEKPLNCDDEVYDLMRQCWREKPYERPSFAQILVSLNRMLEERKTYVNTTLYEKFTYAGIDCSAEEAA
Source text: as §1

[12] = target: T3, TLK1 (Homo sapiens, UniProt Q9UKI8)
T3 sequence (Q9UKI8 1-766): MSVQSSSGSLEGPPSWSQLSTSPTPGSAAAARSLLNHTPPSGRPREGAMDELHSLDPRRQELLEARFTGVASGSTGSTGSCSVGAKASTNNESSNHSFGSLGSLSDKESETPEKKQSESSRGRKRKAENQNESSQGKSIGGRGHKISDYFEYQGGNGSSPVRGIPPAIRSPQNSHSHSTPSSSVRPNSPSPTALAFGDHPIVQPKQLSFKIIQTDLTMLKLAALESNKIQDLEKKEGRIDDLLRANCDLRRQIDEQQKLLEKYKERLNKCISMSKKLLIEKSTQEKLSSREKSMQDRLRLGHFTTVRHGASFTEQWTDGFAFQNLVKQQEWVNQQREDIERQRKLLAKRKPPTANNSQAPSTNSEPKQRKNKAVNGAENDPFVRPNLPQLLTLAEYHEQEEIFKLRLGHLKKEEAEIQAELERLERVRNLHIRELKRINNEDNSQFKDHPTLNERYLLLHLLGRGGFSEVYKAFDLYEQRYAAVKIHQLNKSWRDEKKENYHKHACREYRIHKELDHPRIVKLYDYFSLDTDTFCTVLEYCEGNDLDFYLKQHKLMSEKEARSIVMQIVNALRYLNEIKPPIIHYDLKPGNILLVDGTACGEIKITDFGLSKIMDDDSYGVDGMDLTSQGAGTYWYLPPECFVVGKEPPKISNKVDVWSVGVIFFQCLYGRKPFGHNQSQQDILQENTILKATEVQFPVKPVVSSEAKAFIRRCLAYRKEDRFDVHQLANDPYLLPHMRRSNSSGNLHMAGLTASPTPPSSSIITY
Source text: as §1

[13] = target: p38 alpha MAPK (Homo sapiens, UniProt Q16539)
Chain of p38 alpha MAPK (Q16539 whole entry): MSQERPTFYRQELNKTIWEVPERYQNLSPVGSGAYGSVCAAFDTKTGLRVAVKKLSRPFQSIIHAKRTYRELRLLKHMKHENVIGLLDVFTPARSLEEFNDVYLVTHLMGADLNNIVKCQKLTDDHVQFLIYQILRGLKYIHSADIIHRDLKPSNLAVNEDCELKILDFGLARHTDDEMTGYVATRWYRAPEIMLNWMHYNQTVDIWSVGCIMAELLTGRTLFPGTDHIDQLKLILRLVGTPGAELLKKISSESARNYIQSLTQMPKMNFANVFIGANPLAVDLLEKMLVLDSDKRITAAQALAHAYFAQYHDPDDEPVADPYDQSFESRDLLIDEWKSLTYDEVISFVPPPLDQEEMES
Source text: as §1

Chain of CAMK1 (Q14012 whole entry): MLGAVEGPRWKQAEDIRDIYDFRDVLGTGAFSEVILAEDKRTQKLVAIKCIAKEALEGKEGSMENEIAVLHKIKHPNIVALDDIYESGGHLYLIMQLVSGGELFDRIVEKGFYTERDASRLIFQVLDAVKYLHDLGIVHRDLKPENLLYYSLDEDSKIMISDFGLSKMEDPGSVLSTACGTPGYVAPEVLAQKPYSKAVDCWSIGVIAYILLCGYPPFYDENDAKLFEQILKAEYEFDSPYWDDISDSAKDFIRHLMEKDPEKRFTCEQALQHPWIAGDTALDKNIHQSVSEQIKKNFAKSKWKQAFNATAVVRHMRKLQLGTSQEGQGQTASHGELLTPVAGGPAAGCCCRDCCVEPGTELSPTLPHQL

Structure (SMILES) | remaining activity at 1 µM [1] | remaining activity at 1 µM [2] | remaining activity at 1 µM [3] | remaining activity at 1 µM [4] | remaining activity at 1 µM [5] | remaining activity at 1 µM [6] | remaining activity at 1 µM [7] | remaining activity at 1 µM [8] | remaining activity at 1 µM [9] | remaining activity at 1 µM [10] | remaining activity at 1 µM [11] | remaining activity at 1 µM [12] | remaining activity at 1 µM [13] | remaining activity at 1 µM ([1]; 1 µM) | remaining activity at 1 µM ([2]; 1 µM) | remaining activity at 1 µM ([3]; 1 µM) | remaining activity at 1 µM ([4]; 1 µM) | remaining activity at 1 µM ([5]; 1 µM) | remaining activity at 1 µM ([6]; 1 µM) | remaining activity at 1 µM ([7]; 1 µM) | also measured
COc1ccc(Cl)c(S(=O)(=O)Nc2ccc(-c3nc(OC[C@H]4CNCCO4)c4c(C)n[nH]c4n3)cc2)c1 [290-R, reference compound] | 3% | 104% | 105% | 66% | 41% | 10% | 7% | 94% | 88% | 120% | 17% | 89% | 111% |  |  |  |  |  |  |  | 
Cc1ccc(F)c(S(=O)(=O)Nc2ccc(-c3nc(OC[C@H]4CNCCO4)c4cn[nH]c4n3)cc2)c1 [308-R, reference compound] | 22% | 64% | 83% | 62% | 80% | 24% | 7% | 119% | 100% | 120% | 51% | 108% | 88% |  |  |  |  |  |  |  | 
Cc1ccc(F)c(S(=O)(=O)Nc2ccc(-c3nc(OC[C@H]4CN(CCCCCCOCCOCCOCC(=O)N[C@H](C(=O)N5C[C@H](O)C[C@H]5C(=O)NCc5ccc(-c6scnc6C)cc5)C(C)(C)C)CCO4)c4cn[nH]c4n3)cc2)c1 [SGK3-PROTAC1] |  |  |  |  |  |  |  |  |  |  |  |  |  | 86% | 92% | 79% | 106% | 114% | 71% | 83% | remaining activity at 1 µM ([8]; 1 µM): 96%; remaining activity at 1 µM ([9]; 1 µM): 116%; remaining activity at 1 µM ([10]; 1 µM): 124%; remaining activity at 1 µM ([11]; 1 µM): 64%; remaining activity at 1 µM ([12]; 1 µM): 102%; remaining activity at 1 µM ([13]; 1 µM): 125%
Cc1ccc(F)c(S(=O)(=O)Nc2ccc(-c3nc(OC[C@H]4CN(CCCCCCOCCOCCOCC(=O)N[C@H](C(=O)N5C[C@@H](O)C[C@H]5C(=O)NCc5ccc(-c6scnc6C)cc5)C(C)(C)C)CCO4)c4cn[nH]c4n3)cc2)c1 [cisSGK3-PROTAC1] |  |  |  |  |  |  |  |  |  |  |  |  |  | 105% | 104% | 77% | 102% | 124% | 76% | 90% | remaining activity at 1 µM ([8]; 1 µM): 104%; remaining activity at 1 µM ([9]; 1 µM): 103%; remaining activity at 1 µM ([10]; 1 µM): 114%; remaining activity at 1 µM ([11]; 1 µM): 81%; remaining activity at 1 µM ([12]; 1 µM): 109%; remaining activity at 1 µM ([13]; 1 µM): 109%
